Reference: US20220289708A1, “SUBSTITUTED N-PHENYL URACILS, SALTS THEREOF AND THEIR USE AS HERBICIDAL AGENTS” (Bayer Aktiengesellschaft, priority 2019, published 2022)

How the values were obtained:
Assay in all cases: Post-emergence herbicidal action
Format in all cases: in vivo
Pharbitis purpurea = settings: application rate 20 g/ha, rated visually after about 3 weeks vs untreated controls
Experimental: (§1) a. Post-Emergence Herbicidal Action and Crop Plant Compatibility Seeds of monocotyledonous and dicotyledonous weeds and crop plants were placed in sandy loam in plastic or wood-fiber pots, covered with soil and cultivated in a greenhouse under controlled growth conditions. 2 to 3 weeks after sowing, the test plants were treated at the one-leaf stage. The compounds of the invention, formulated in the form of wettable powders (WP) or as emulsion concentrates (EC), were then sprayed onto the green parts of the plants as aqueous suspension or emulsion with addition of 0.5% additive at a water application rate of 600 l/ha (converted). After the test plants had been kept in the greenhouse under optimum growth conditions for about 3 weeks, the activity of the preparations was rated visually in comparison to untreated controls. For example, 100% activity=the plants have died, 0% activity=like control plants. Tables A1 to A15 below show the effects of selected compounds of the general formula (I) according to Tables I.1 to I.36 on various harmful plants and at an application rate corresponding to 20 g/ha and less, which were obtained by the experimental procedure mentioned above.

Avena fatua = settings: application rate 20 g/ha, rated visually after about 3 weeks vs untreated controls
Experimental: as §1

Setaria viridis = settings: application rate 20 g/ha, rated visually after about 3 weeks vs untreated controls
Experimental: as §1

Alopecurus myosuroides = settings: application rate 20 g/ha, rated visually after about 3 weeks vs untreated controls
Experimental: as §1

Viola tricolor = settings: application rate 20 g/ha
Experimental: as §1

Lolium rigidum = settings: application rate 20 g/ha, rated visually after about 3 weeks vs untreated controls
Experimental: as §1

Veronica persica = settings: application rate 20 g/ha
Experimental: as §1

Digitaria sanguinalis = settings: application rate 20 g/ha, rated visually after about 3 weeks vs untreated controls
Experimental: as §1

Polygonum convolvulus = settings: application rate 20 g/ha
Experimental: as §1

Amaranthus retroflexus = settings: application rate 20 g/ha, rated visually after about 3 weeks vs untreated controls
Experimental: as §1

Matricaria inodora = settings: application rate 20 g/ha, rated visually after about 3 weeks vs untreated controls
Experimental: as §1

Echinochloa crus-galli = settings: application rate 20 g/ha, rated visually after about 3 weeks vs untreated controls
Experimental: as §1

Abutilon theophrasti = settings: application rate 20 g/ha, rated visually after about 3 weeks vs untreated controls
Experimental: as §1

CCOCCOC(=O)COc1ncccc1Oc1cc(-n2c(=O)cc(C(F)(F)F)n(C)c2=O)c(F)cc1Cl [I.15-2]
Pharbitis purpurea (efficacy in %) (Pharbitis purpurea): 100%
Avena fatua (efficacy in %) (Avena fatua): 90%
Setaria viridis (efficacy in %) (Setaria viridis): 100%
Alopecurus myosuroides (efficacy in %) (Alopecurus myosuroides): 100%
Viola tricolor (efficacy in %) (Viola tricolor): 100%
Lolium rigidum (efficacy in %) (Lolium rigidum): 90%
Veronica persica (efficacy in %) (Veronica persica): 100%
Digitaria sanguinalis (efficacy in %) (Digitaria sanguinalis): 100%
Polygonum convolvulus (efficacy in %) (Polygonum convolvulus): 100%
Amaranthus retroflexus (efficacy in %) (Amaranthus retroflexus): 100%
Matricaria inodora (efficacy in %) (Matricaria inodora): 100%
Echinochloa crus-galli (efficacy in %) (Echinochloa crus-galli): 100%
Abutilon theophrasti (efficacy in %) (Abutilon theophrasti): 100%

Cc1nn(C)cc1COC(=O)COc1ncccc1Oc1cc(-n2c(=O)cc(C(F)(F)F)n(C)c2=O)c(F)cc1Cl [I.15-366]
Pharbitis purpurea (efficacy in %) (Pharbitis purpurea): 100%
Avena fatua (efficacy in %) (Avena fatua): 90%
Setaria viridis (efficacy in %) (Setaria viridis): 100%
Alopecurus myosuroides (efficacy in %) (Alopecurus myosuroides): 100%
Viola tricolor (efficacy in %) (Viola tricolor): 100%
Lolium rigidum (efficacy in %) (Lolium rigidum): 90%
Veronica persica (efficacy in %) (Veronica persica): 100%
Digitaria sanguinalis (efficacy in %) (Digitaria sanguinalis): 100%
Amaranthus retroflexus (efficacy in %) (Amaranthus retroflexus): 100%
Matricaria inodora (efficacy in %) (Matricaria inodora): 100%
Echinochloa crus-galli (efficacy in %) (Echinochloa crus-galli): 100%
Abutilon theophrasti (efficacy in %) (Abutilon theophrasti): 100%

Cc1c(COC(=O)COc2ncccc2Oc2cc(-n3c(=O)cc(C(F)(F)F)n(C)c3=O)c(F)cc2Cl)cnn1C [I.15-367]
Pharbitis purpurea (efficacy in %) (Pharbitis purpurea): 100%
Avena fatua (efficacy in %) (Avena fatua): 90%
Setaria viridis (efficacy in %) (Setaria viridis): 100%
Alopecurus myosuroides (efficacy in %) (Alopecurus myosuroides): 100%
Viola tricolor (efficacy in %) (Viola tricolor): 100%
Lolium rigidum (efficacy in %) (Lolium rigidum): 80%
Veronica persica (efficacy in %) (Veronica persica): 100%
Digitaria sanguinalis (efficacy in %) (Digitaria sanguinalis): 100%
Amaranthus retroflexus (efficacy in %) (Amaranthus retroflexus): 100%
Matricaria inodora (efficacy in %) (Matricaria inodora): 100%
Echinochloa crus-galli (efficacy in %) (Echinochloa crus-galli): 100%
Abutilon theophrasti (efficacy in %) (Abutilon theophrasti): 100%

CCn1cc(COC(=O)COc2ncccc2Oc2cc(-n3c(=O)cc(C(F)(F)F)n(C)c3=O)c(F)cc2Cl)c(C)n1 [I.15-368]
Pharbitis purpurea (efficacy in %) (Pharbitis purpurea): 100%
Avena fatua (efficacy in %) (Avena fatua): 100%
Setaria viridis (efficacy in %) (Setaria viridis): 100%
Alopecurus myosuroides (efficacy in %) (Alopecurus myosuroides): 100%
Viola tricolor (efficacy in %) (Viola tricolor): 100%
Lolium rigidum (efficacy in %) (Lolium rigidum): 90%
Veronica persica (efficacy in %) (Veronica persica): 100%
Digitaria sanguinalis (efficacy in %) (Digitaria sanguinalis): 100%
Amaranthus retroflexus (efficacy in %) (Amaranthus retroflexus): 100%
Matricaria inodora (efficacy in %) (Matricaria inodora): 100%
Echinochloa crus-galli (efficacy in %) (Echinochloa crus-galli): 100%
Abutilon theophrasti (efficacy in %) (Abutilon theophrasti): 100%

CCS(=O)(=O)NCCOC(=O)COc1ncccc1Oc1cc(-n2c(=O)cc(C(F)(F)F)n(C)c2=O)c(F)cc1Cl [I.15-421]
Pharbitis purpurea (efficacy in %) (Pharbitis purpurea): 100%
Avena fatua (efficacy in %) (Avena fatua): 100%
Setaria viridis (efficacy in %) (Setaria viridis): 100%
Alopecurus myosuroides (efficacy in %) (Alopecurus myosuroides): 100%
Viola tricolor (efficacy in %) (Viola tricolor): 100%
Lolium rigidum (efficacy in %) (Lolium rigidum): 100%
Veronica persica (efficacy in %) (Veronica persica): 100%
Digitaria sanguinalis (efficacy in %) (Digitaria sanguinalis): 100%
Polygonum convolvulus (efficacy in %) (Polygonum convolvulus): 100%
Amaranthus retroflexus (efficacy in %) (Amaranthus retroflexus): 100%
Matricaria inodora (efficacy in %) (Matricaria inodora): 100%
Echinochloa crus-galli (efficacy in %) (Echinochloa crus-galli): 100%
Abutilon theophrasti (efficacy in %) (Abutilon theophrasti): 100%

CCOC(COC(=O)COc1ncccc1Oc1cc(-n2c(=O)cc(C(F)(F)F)n(C)c2=O)c(F)cc1Cl)OCC [I.15-422]
Pharbitis purpurea (efficacy in %) (Pharbitis purpurea): 100%
Avena fatua (efficacy in %) (Avena fatua): 80%
Setaria viridis (efficacy in %) (Setaria viridis): 100%
Alopecurus myosuroides (efficacy in %) (Alopecurus myosuroides): 100%
Viola tricolor (efficacy in %) (Viola tricolor): 100%
Lolium rigidum (efficacy in %) (Lolium rigidum): 100%
Veronica persica (efficacy in %) (Veronica persica): 100%
Digitaria sanguinalis (efficacy in %) (Digitaria sanguinalis): 100%
Polygonum convolvulus (efficacy in %) (Polygonum convolvulus): 100%
Amaranthus retroflexus (efficacy in %) (Amaranthus retroflexus): 100%
Matricaria inodora (efficacy in %) (Matricaria inodora): 100%
Echinochloa crus-galli (efficacy in %) (Echinochloa crus-galli): 100%
Abutilon theophrasti (efficacy in %) (Abutilon theophrasti): 100%

COCCOC(=O)COc1ncccc1Oc1cc(-n2c(=O)cc(C(F)(F)F)n(C)c2=O)c(F)cc1Br [I.16-1]
Pharbitis purpurea (efficacy in %) (Pharbitis purpurea): 100%
Avena fatua (efficacy in %) (Avena fatua): 90%
Setaria viridis (efficacy in %) (Setaria viridis): 100%
Alopecurus myosuroides (efficacy in %) (Alopecurus myosuroides): 100%
Viola tricolor (efficacy in %) (Viola tricolor): 100%
Lolium rigidum (efficacy in %) (Lolium rigidum): 90%
Veronica persica (efficacy in %) (Veronica persica): 100%
Digitaria sanguinalis (efficacy in %) (Digitaria sanguinalis): 100%
Polygonum convolvulus (efficacy in %) (Polygonum convolvulus): 100%
Amaranthus retroflexus (efficacy in %) (Amaranthus retroflexus): 100%
Matricaria inodora (efficacy in %) (Matricaria inodora): 100%
Echinochloa crus-galli (efficacy in %) (Echinochloa crus-galli): 100%
Abutilon theophrasti (efficacy in %) (Abutilon theophrasti): 100%

CCOCCOC(=O)COc1ncccc1Oc1cc(-n2c(=O)cc(C(F)(F)F)n(C)c2=O)c(F)cc1Br [I.16-2]
Pharbitis purpurea (efficacy in %) (Pharbitis purpurea): 100%
Avena fatua (efficacy in %) (Avena fatua): 100%
Setaria viridis (efficacy in %) (Setaria viridis): 100%
Alopecurus myosuroides (efficacy in %) (Alopecurus myosuroides): 100%
Viola tricolor (efficacy in %) (Viola tricolor): 100%
Lolium rigidum (efficacy in %) (Lolium rigidum): 100%
Veronica persica (efficacy in %) (Veronica persica): 100%
Digitaria sanguinalis (efficacy in %) (Digitaria sanguinalis): 100%
Polygonum convolvulus (efficacy in %) (Polygonum convolvulus): 100%
Amaranthus retroflexus (efficacy in %) (Amaranthus retroflexus): 100%
Matricaria inodora (efficacy in %) (Matricaria inodora): 100%
Echinochloa crus-galli (efficacy in %) (Echinochloa crus-galli): 100%
Abutilon theophrasti (efficacy in %) (Abutilon theophrasti): 100%

COCCOCCOC(=O)COc1ncccc1Oc1cc(-n2c(=O)cc(C(F)(F)F)n(C)c2=O)c(F)cc1Br [I.16-23]
Pharbitis purpurea (efficacy in %) (Pharbitis purpurea): 100%
Avena fatua (efficacy in %) (Avena fatua): 100%
Setaria viridis (efficacy in %) (Setaria viridis): 100%
Alopecurus myosuroides (efficacy in %) (Alopecurus myosuroides): 100%
Viola tricolor (efficacy in %) (Viola tricolor): 100%
Lolium rigidum (efficacy in %) (Lolium rigidum): 100%
Veronica persica (efficacy in %) (Veronica persica): 100%
Digitaria sanguinalis (efficacy in %) (Digitaria sanguinalis): 100%
Polygonum convolvulus (efficacy in %) (Polygonum convolvulus): 100%
Amaranthus retroflexus (efficacy in %) (Amaranthus retroflexus): 100%
Matricaria inodora (efficacy in %) (Matricaria inodora): 100%
Echinochloa crus-galli (efficacy in %) (Echinochloa crus-galli): 100%
Abutilon theophrasti (efficacy in %) (Abutilon theophrasti): 100%

COCCOCCOC(=O)COc1ncccc1Oc1cc(-n2c(=O)cc(C(F)(F)F)n(C)c2=O)c(F)cc1C#N [I.35-23]
Pharbitis purpurea (efficacy in %) (Pharbitis purpurea): 100%
Avena fatua (efficacy in %) (Avena fatua): 90%
Setaria viridis (efficacy in %) (Setaria viridis): 100%
Alopecurus myosuroides (efficacy in %) (Alopecurus myosuroides): 100%
Viola tricolor (efficacy in %) (Viola tricolor): 100%
Veronica persica (efficacy in %) (Veronica persica): 100%
Digitaria sanguinalis (efficacy in %) (Digitaria sanguinalis): 100%
Amaranthus retroflexus (efficacy in %) (Amaranthus retroflexus): 100%
Matricaria inodora (efficacy in %) (Matricaria inodora): 100%
Echinochloa crus-galli (efficacy in %) (Echinochloa crus-galli): 100%
Abutilon theophrasti (efficacy in %) (Abutilon theophrasti): 100%

COCCOCCOC(=O)COc1ncc(F)cc1Oc1cc(-n2c(=O)cc(C(F)(F)F)n(C)c2=O)c(F)cc1Cl [I.36-23]
Pharbitis purpurea (efficacy in %) (Pharbitis purpurea): 100%
Setaria viridis (efficacy in %) (Setaria viridis): 100%
Alopecurus myosuroides (efficacy in %) (Alopecurus myosuroides): 100%
Viola tricolor (efficacy in %) (Viola tricolor): 100%
Lolium rigidum (efficacy in %) (Lolium rigidum): 90%
Veronica persica (efficacy in %) (Veronica persica): 100%
Digitaria sanguinalis (efficacy in %) (Digitaria sanguinalis): 100%
Polygonum convolvulus (efficacy in %) (Polygonum convolvulus): 90%
Amaranthus retroflexus (efficacy in %) (Amaranthus retroflexus): 100%
Matricaria inodora (efficacy in %) (Matricaria inodora): 100%
Echinochloa crus-galli (efficacy in %) (Echinochloa crus-galli): 100%
Abutilon theophrasti (efficacy in %) (Abutilon theophrasti): 100%
